Among the data in US20210070748A1, “INHIBITORS OF BRUTONS TYROSINE KINASE” (Pharmacyclics LLC, priority 2015, published 2021) are IC50 values, retold here.

What all share (assay type): biochemical
For assay [1], the target named is T1, TEC (Homo sapiens, UniProt P42680).
T1 sequence (P42680 1-631): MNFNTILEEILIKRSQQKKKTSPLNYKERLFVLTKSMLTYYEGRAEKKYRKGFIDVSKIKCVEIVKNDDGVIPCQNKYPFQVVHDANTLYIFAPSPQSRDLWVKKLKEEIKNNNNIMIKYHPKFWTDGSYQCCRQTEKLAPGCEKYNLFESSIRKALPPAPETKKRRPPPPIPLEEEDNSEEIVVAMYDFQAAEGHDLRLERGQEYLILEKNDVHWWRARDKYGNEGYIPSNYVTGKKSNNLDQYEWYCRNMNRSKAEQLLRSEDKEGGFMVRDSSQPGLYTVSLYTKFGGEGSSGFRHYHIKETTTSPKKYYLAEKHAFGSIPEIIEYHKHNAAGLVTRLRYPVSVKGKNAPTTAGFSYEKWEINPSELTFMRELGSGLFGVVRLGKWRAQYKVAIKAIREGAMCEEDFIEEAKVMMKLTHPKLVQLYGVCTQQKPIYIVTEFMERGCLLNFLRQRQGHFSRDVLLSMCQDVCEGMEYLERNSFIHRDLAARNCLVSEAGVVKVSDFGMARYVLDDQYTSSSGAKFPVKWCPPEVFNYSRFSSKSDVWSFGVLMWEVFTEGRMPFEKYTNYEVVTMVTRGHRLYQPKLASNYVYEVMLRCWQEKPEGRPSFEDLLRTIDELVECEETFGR
The assay is described as follows: Inhibition of a panel of kinases, in vitro HotSpot kinase assay: TEC. To be noted: D-compounds panel data; 1 μM ATP. The protocol:
(§1) The degree of inhibition of a panel of kinases is determined using the in vitro HotSpot kinase assay (purified enzymes, ^33P-ATP, an appropriate substrate and 1 μM ATP).

Assay [2] deals with LCK (Homo sapiens, UniProt P06239). The assay is described as follows: Inhibition of a panel of kinases, in vitro HotSpot kinase assay: LCK. The conditions noted are these: D-compounds panel data; 1 μM ATP; read-out: IC50 LCK.
Chain of LCK (P06239 whole entry): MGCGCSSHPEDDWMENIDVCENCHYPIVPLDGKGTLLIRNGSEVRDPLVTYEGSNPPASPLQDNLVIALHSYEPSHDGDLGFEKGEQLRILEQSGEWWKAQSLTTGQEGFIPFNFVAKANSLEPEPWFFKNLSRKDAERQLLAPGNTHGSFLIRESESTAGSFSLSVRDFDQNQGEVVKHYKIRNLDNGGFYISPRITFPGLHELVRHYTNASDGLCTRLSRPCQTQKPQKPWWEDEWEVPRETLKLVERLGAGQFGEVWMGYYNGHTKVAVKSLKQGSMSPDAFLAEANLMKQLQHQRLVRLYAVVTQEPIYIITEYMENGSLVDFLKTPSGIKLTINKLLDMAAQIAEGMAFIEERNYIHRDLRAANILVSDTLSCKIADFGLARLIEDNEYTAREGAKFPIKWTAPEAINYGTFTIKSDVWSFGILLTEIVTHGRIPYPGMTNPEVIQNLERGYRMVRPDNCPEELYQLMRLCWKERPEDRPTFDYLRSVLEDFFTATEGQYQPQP
Assay [3] addresses T2, BTK-WT (Homo sapiens, UniProt Q06187).
T2 construct: purified from insect cells as a full-length construct containing an N-terminal 6X-His tag; His6 (N); made in house; host or cells: insect cells (baculovirus Sf21 in Method B)
The assay is described as follows: Btk in vitro inhibitory activity (one of Method A TR-FRET, Method B electrophoretic mobility shift, Method C radiometric filter binding). To be noted: D-compounds panel data; read-out: IC50 BTK-WT. (In general: In EMSA bound probe runs differently from free probe, usually more slowly.)

The target of assay [4] is SRC (Homo sapiens, UniProt P12931). The assay is described as follows: Inhibition of a panel of kinases, in vitro HotSpot kinase assay: SRC. The conditions noted are these: D-compounds panel data; 1 μM ATP. As for the experimental part:
as §1

Assay [5] deals with T3, ITK (Homo sapiens, UniProt Q08881).
T3 sequence (Q08881 1-620): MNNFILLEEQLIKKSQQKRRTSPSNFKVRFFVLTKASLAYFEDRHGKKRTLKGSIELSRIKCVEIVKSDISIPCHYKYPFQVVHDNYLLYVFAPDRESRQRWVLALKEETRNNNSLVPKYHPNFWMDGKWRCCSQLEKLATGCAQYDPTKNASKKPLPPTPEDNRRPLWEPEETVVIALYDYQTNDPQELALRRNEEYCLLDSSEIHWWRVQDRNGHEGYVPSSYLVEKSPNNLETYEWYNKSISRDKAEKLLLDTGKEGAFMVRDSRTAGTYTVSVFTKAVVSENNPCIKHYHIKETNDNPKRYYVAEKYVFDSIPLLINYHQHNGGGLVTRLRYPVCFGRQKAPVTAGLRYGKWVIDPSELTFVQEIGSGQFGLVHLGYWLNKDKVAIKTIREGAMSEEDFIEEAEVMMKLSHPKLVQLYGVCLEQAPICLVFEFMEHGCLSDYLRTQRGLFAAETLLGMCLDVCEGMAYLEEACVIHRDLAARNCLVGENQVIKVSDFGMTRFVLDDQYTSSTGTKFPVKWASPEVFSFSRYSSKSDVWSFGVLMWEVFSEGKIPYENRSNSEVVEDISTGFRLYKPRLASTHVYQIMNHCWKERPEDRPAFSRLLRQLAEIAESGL
The assay is described as follows: Inhibition of a panel of kinases, in vitro HotSpot kinase assay: ITK. To be noted: D-compounds panel data; 1 μM ATP. The protocol: as §1

What is called IC50 is the concentration that gives 50% inhibition.

Where only a bound is given, the exact number is not on record here.

Chain of SRC (P12931 whole entry): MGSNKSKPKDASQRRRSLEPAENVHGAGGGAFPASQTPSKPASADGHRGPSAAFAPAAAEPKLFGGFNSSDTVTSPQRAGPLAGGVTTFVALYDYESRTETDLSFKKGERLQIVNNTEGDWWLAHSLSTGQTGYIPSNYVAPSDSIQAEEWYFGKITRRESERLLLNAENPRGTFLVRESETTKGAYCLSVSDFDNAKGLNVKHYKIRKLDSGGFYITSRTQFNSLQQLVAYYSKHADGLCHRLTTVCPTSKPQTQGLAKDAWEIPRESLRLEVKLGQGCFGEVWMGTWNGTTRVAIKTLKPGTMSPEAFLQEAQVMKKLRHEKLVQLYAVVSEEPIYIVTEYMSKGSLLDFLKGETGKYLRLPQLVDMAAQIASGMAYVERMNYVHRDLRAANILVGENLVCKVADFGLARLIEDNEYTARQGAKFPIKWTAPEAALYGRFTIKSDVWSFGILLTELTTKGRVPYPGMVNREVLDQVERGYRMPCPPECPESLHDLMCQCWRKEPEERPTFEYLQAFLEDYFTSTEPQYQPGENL
T2 sequence (Q06187 whole entry): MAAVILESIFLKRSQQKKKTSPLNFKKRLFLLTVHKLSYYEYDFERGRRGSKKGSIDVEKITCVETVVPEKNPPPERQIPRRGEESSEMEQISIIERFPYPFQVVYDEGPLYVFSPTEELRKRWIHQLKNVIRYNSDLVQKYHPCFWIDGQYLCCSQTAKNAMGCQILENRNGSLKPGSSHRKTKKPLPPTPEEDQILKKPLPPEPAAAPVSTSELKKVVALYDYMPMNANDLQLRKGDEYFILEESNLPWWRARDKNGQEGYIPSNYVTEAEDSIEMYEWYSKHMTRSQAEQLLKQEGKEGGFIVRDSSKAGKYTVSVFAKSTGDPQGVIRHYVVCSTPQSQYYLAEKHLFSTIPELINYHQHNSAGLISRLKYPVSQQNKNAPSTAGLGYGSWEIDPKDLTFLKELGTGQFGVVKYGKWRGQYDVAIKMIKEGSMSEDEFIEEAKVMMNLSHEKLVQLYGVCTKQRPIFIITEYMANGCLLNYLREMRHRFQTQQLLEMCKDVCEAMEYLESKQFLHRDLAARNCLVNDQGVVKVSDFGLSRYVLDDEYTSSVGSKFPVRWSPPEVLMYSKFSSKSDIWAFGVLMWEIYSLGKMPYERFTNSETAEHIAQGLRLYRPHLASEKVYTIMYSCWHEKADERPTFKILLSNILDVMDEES

Turning to `C[C@@H]1[C@H](NC(=O)c2ccc(C3CC3)cc2)CCCN1c1cnc(C(N)=O)c(Nc2cc(C3CCN(C)CC3)ns2)n1` [Example D-312, 5-[(2R,3R)-3-(4-cyclopropylbenzamido)-2-methylpiperidin-1-yl]-3-{[3-(1-methylpiperidin-4-yl)-1,2-thiazol-5-yl]amino}pyrazine-2-carboxamide], the IC50 in assay [1] was ≤ 10 nM; in assay [2], < 10 nM; in assay [3], ≤ 10 nM; in assay [4] it was ≤ 10 nM; in assay [5], 10 to 100 nM.
Regarding `C[C@@H]1[C@H](NC(=O)c2ccc(C3CC3)cc2)CCCN1c1cnc(C(N)=O)c(Nc2cnn(CC#N)c2)n1` [Example D-287, 3-{[1-(cyanomethyl)-1H-pyrazol-4-yl]amino}-5-[(2R,3R)-3-(4-cyclopropylbenzamido)-2-methylpiperidin-1-yl]pyrazine-2-carboxamide], the IC50 in assay [1] is ≤ 10 nM; in assay [2] it was 100 to 1000 nM; in assay [3] it was ≤ 10 nM; in assay [4], 100 to 1000 nM; in assay [5] it was 100 to 1000 nM.
Turning to `C[C@@H]1[C@H](NC(=O)c2ccc(C(C)(C)C)cc2)CCCN1c1nnc(C(N)=O)c(Nc2cnn(C)c2)n1` [Example D-285, 3-[(2R,3R)-3-(4-tert-butylbenzamido)-2-methylpiperidin-1-yl]-5-[(1-methyl-1H-pyrazol-4-yl)amino]-1,2,4-triazine-6-carboxamide], the IC50 is ≤ 10 nM in assay [1]; 10 to 100 nM in assay [2]; ≤ 10 nM in assay [3]; 10 to 100 nM in assay [4]; 10 to 100 nM in assay [5].
For the molecule `C[C@@H]1[C@H](NC(=O)c2ccc(C3CC3)c(O)c2)CCCN1c1cnc(C(N)=O)c(Nc2cnn(C)c2)n1` [Example D-245, 5-[(2R,3R)-3-(4-cyclopropyl-3-hydroxybenzamido)-2-methylpiperidin-1-yl]-3-[(1-methyl-1H-pyrazol-4-yl)amino]pyrazine-2-carboxamide], the IC50 was ≤ 10 nM in assay [1]; 100 to 1000 nM in assay [2]; ≤ 10 nM in assay [3]; 10 to 100 nM in assay [4]; 100 to 1000 nM in assay [5].
Consider `Cc1cc2cc(C(=O)N[C@@H]3CCCN(c4cnc(C(N)=O)c(Nc5cnn(C)c5)n4)[C@@H]3C)ccc2o1` [Example D-246, 3-[(1-methyl-1H-pyrazol-4-yl)amino]-5-[(2R,3R)-2-methyl-3-(2-methyl-1-benzofuran-5-amido)piperidin-1-yl]pyrazine-2-carboxamide], for which the half-maximal inhibitory concentration (IC50) was ≤ 10 nM in assay [1]; 10 to 100 nM in assay [2]; ≤ 10 nM in assay [3]; 10 to 100 nM in assay [4]; 100 to 1000 nM in assay [5].
Consider `C[C@@H]1[C@H](NC(=O)c2ccc(C3CC3)cn2)CCCN1c1cnc(C(N)=O)c(Nc2ccc(OC3CCN(C)CC3)cc2)n1` [Example D-297, 5-[(2R,3R)-3-(5-cyclopropylpyridine-2-amido)-2-methylpiperidin-1-yl]-3-({4-[(1-methylpiperidin-4-yl)oxy]phenyl}amino)pyrazine-2-carboxamide], for which the IC50 in assay [1] is ≤ 10 nM; in assay [2], 10 to 100 nM; in assay [3] it was ≤ 10 nM; in assay [4], 10 to 100 nM; in assay [5] it was 10 to 100 nM.
As to `C[C@@H]1[C@H](NC(=O)c2ccc(C3(CO)CC3)cc2)CCCN1c1cnc(C(N)=O)c(Nc2cnn(C)c2)n1` [Example D-260, 5-[(2R,3R)-3-{4-[1-(hydroxymethyl)cyclopropyl]benzamido}-2-methylpiperidin-1-yl]-3-[(1-methyl-1H-pyrazol-4-yl)amino]pyrazine-2-carboxamide], the IC50 was ≤ 10 nM in assay [1]; 10 to 100 nM in assay [2]; ≤ 10 nM in assay [3]; 10 to 100 nM in assay [4]; 100 to 1000 nM in assay [5].
Consider `C[C@@H]1[C@H](NC(=O)c2c[nH]c(C3CC3)n2)CCCN1c1cnc(C(N)=O)c(Nc2cnn(C)c2)n1` [Example D-264, 5-[(2R,3R)-3-(2-cyclopropyl-1H-imidazole-4-amido)-2-methylpiperidin-1-yl]-3-[(1-methyl-1H-pyrazol-4-yl)amino]pyrazine-2-carboxamide], for which the IC50 was ≤ 10 nM in assay [1]; 10 to 100 nM in assay [2]; ≤ 10 nM in assay [3]; 10 to 100 nM in assay [4]; 100 to 1000 nM in assay [5].
As to `Cc1nn(C)cc1Nc1nc(N2CCC[C@@H](NC(=O)c3ccc(C4CC4)cc3)[C@H]2C)cnc1C(N)=O` [Example D-272, 5-[(2R,3R)-3-(4-cyclopropylbenzamido)-2-methylpiperidin-1-yl]-3-[(1,3-dimethyl-1H-pyrazol-4-yl)amino]pyrazine-2-carboxamide], the IC50 is 1000 to 10000 nM in assay [1]; > 10000 nM in assay [2]; 10 to 100 nM in assay [3]; > 10000 nM in assay [4]; > 10000 nM in assay [5].
For `C[C@@H]1[C@H](NC(=O)c2ccc(C(C)(C)F)cc2)CCCN1c1cnc(C(N)=O)c(Nc2cnn(C)c2)n1` [Example D-251, 5-[(2R,3R)-3-[4-(2-fluoropropan-2-yl)benzamido]-2-methylpiperidin-1-yl]-3-[(1-methyl-1H-pyrazol-4-yl)amino]pyrazine-2-carboxamide], the 50% inhibitory concentration (IC50) was ≤ 10 nM in assay [1]; 10 to 100 nM in assay [2]; ≤ 10 nM in assay [3]; 10 to 100 nM in assay [4]; 100 to 1000 nM in assay [5].
Turning to `C[C@@H]1[C@H](NC(=O)c2ccc(C3CC3)cc2)CCCN1c1cnc(C(N)=O)c(Nc2cnn(C3CCNCC3)c2)n1` [Example D-280, 5-[(2R,3R)-3-(4-cyclopropylbenzamido)-2-methylpiperidin-1-yl]-3-{[1-(piperidin-4-yl)-1H-pyrazol-4-yl]amino}pyrazine-2-carboxamide], the IC50 in assay [1] was ≤ 10 nM; in assay [2], < 10 nM; in assay [3], ≤ 10 nM; in assay [4], ≤ 10 nM; in assay [5] it was 10 to 100 nM.
For `C[C@@H]1[C@H](NC(=O)c2ccc(C3CC3)cc2)CCCN1c1cnc(C(N)=O)c(Nc2cc(C3CCN(C4CCCC4)CC3)ns2)n1` [Example D-311, 3-{[3-(1-cyclopentylpiperidin-4-yl)-1,2-thiazol-5-yl]amino}-5-[(2R,3R)-3-(4-cyclopropylbenzamido)-2-methylpiperidin-1-yl]pyrazine-2-carboxamide], the IC50 was 10 to 100 nM in assay [1]; 10 to 100 nM in assay [2]; ≤ 10 nM in assay [3]; 10 to 100 nM in assay [4]; 10 to 100 nM in assay [5].
With `CC(C)n1nnc2cc(C(=O)N[C@@H]3CCCN(c4cnc(C(N)=O)c(Nc5cnn(C)c5)n4)[C@@H]3C)ccc21` [Example D-255, N-[(2R,3R)-1-{5-carbamoyl-6-[(1-methyl-i H-pyrazol-4-yl)amino]pyrazin-2-yl}-2-methylpiperidin-3-yl]-1-(propan-2-yl)-1H-1,2,3-benzotriazole-5-carboxamide], the IC50 is ≤ 10 nM in assay [1]; 100 to 1000 nM in assay [2]; ≤ 10 nM in assay [3]; 10 to 100 nM in assay [4]; 100 to 1000 nM in assay [5].
Turning to `CCn1cc(Nc2nc(N3CCC[C@@H](NC(=O)c4ccc(C5CC5)cc4)[C@H]3C)cnc2C(N)=O)cn1` [Example D-273, 5-[(2R,3R)-3-(4-cyclopropylbenzamido)-2-methylpiperidin-1-yl]-3-[(1-ethyl-1H-pyrazol-4-yl)amino]pyrazine-2-carboxamide], the IC50 in assay [1] was 10 to 100 nM; in assay [2], 100 to 1000 nM; in assay [3], ≤ 10 nM; in assay [4], 100 to 1000 nM; in assay [5], 100 to 1000 nM.
